Where two headings read alike, the source gives them in different places.
Key:
Human recombinant SCP-2 [1] = target: T1, Human recombinant SCP-2 (Homo sapiens, UniProt P22307); assay: NBDS displacement assay; type: binding; settings: for Max % Displacement: displacement of SCP-2 (500 nM)-bound NBDS (500 nM), 24°C, 10 mM phosphate buffer pH 7.4, n=4
T1 sequence (P22307 1-143 isoform P22307-2): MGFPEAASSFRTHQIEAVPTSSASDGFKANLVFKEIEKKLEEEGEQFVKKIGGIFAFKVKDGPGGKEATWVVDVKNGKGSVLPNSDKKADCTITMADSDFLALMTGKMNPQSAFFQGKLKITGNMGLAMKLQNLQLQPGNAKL

Human recombinant SCP-2 [2] = target: T1, Human recombinant SCP-2; assay: Reverse and forward titrations of NBDS with SCP-2; type: binding; settings: forward titration, SCP-2 500 nM, NBDS 0–1.8 μM
[3] = Ki = (Kd,NBDS × EC50)/[NBDS]total, NBDS 0.5 μM
[4] = Ki, Ki = (Kd,NBDS × EC50)/[NBDS]total, NBDS 0.5 μM

SMILES	Ki (Human recombinant SCP-2 [1]; [3])	Max % Displacement (Human recombinant SCP-2 [1])	other results
CC/C=C\C/C=C\C/C=C\C/C=C\C/C=C\C/C=C\CCC(=O)NCCO [Compound 13, docosahexaenoyl ethanolamide]	1.91 ± 0.04 µM	73.9 ± 1.3%	
CCCCC/C=C\C/C=C\C/C=C\C/C=C\CCCC(=O)NCCc1c[nH]c2ccc(O)cc12 [Compound 8, N-arachidonoyl serotonin]	1.46 ± 0.02 µM	84.8 ± 0.8%	
CCCCC/C=C\C/C=C\C/C=C\C/C=C\CCCC(=O)OCCN [Compound 6, O-arachidonoylethanolamine]	1.6 ± 0.02 µM	94.7 ± 1.6%	
CCCCC/C=C\C/C=C\C/C=C\C/C=C\CCCC(=O)NCCO [Compound 1, N-arachidonoylethanolamine]	0.68 ± 0.05 µM	59.3 ± 1.2%	
CCCCC/C=C\C/C=C\C/C=C\C/C=C\CCCC(=O)OC(CO)CO [Compound 2, 2-arachidonoylglycerol]		55.1 ± 1.0%	EC50 (Human recombinant SCP-2 [1]): 0.84 ± 0.04 µM; Ki (Human recombinant SCP-2 [1]; [4]): 0.37 ± 0.02 µM
CCCCC/C=C\C/C=C\C/C=C\C/C=C\CCCC(=O)OCC(O)CO (stereo not shown) [Compound 3, 1-arachidonoyl glycerol]		57.7 ± 0.7%	EC50 (Human recombinant SCP-2 [1]): 1.87 ± 0.05 µM; Ki (Human recombinant SCP-2 [1]; [4]): 0.82 ± 0.02 µM
CCCCC/C=C\C/C=C\C/C=C\C/C=C\CCCC(=O)NC(CO)CO [Compound 4, N-arachidonoyl serinol]	2.95 ± 0.12 µM	69.2 ± 1.7%	fold reduction in potency compared to 2 (Human recombinant SCP-2 [1]; NBDS displacement, versus 2-AG (2)): 8 fold
CCCCC/C=C\C/C=C\C/C=C\C/C=C\CCCC(=O)NCCc1ccc(O)c(O)c1 [Compound 9, N-arachidonoyl dopamine]	1.12 ± 0.02 µM	94.9 ± 0.1%	
CCCCC/C=C\C/C=C\C/C=C\C/C=C\CCCC(=O)Nc1ccc(O)cc1 [Compound 10, N-arachidonoyl-p-aminophenol]	1.41 ± 0.03 µM	89.2 ± 0.8%	Max % Displacement (Human recombinant SCP-2 [1]; listed as AM404): 89%
CCCCCCCC/C=C\CCCCCCCC(N)=O [Compound 12, Oleamide]		68.3 ± 1.7%	EC50 (Human recombinant SCP-2 [1]): 13.1 ± 2.3 µM; Ki (Human recombinant SCP-2 [1]): 5.8 ± 1 µM
CCCCCCC(CCCCCCCCCCC(=O)O)N(C)c1ccc([N+](=O)[O-])c2nonc12 (stereo not shown) [NBDS, 12-N-methyl-(7-nitrobenz-2-oxa-1,3-diazo)aminostearic acid]			Bmax (Human recombinant SCP-2 [2]): 0.89 ± 0.04 binding sites per molecule of SCP-2
CCCCC/C=C\C/C=C\C/C=C\C/C=C\CCCC(=O)NCC(=O)O [Compound 7, N-arachidonoyl glycine]	1.22 ± 0.03 µM	82.0 ± 0.8%	
CC(=O)Nc1ccc(Nc2nc(-c3ccc(Cl)c(Cl)c3)cs2)cc1 [Compound 14]	1 ± 0.1 µM	96.6 ± 0.7%	
CCCCC/C=C\C/C=C\C/C=C\C/C=C\CCCC(N)=O [Compound 11, Arachidonoyl amide]	1.8 ± 0.1 µM	71.1 ± 1.3%	
CCCCC/C=C\C/C=C\C/C=C\C/C=C\CCCC(=O)NCCF [Compound 5, arachidonoyl-2’-fluoroethylamide]	2.78 ± 0.21 µM	64.4 ± 2.2%	

Reference: PMC6904209 (Methods in enzymology, 2017)
